Assay results from article PMC6123711, “Conformational signatures in β-arrestin2 reveal natural biased agonism at a G-protein-coupled receptor” (Communications Biology, 2018).

How the values were obtained:
[1] = test system: Galr2; assay: SRE-Luc gene reporter assay; format: cell-based, human; conditions: for Log(τ/KA), SRE-Luc: HEK293 cells, Galr2, 6 h ligand treatment, operational model (Eq. 2)
Excerpt: Galr2 is primarily coupled to the Gαq-protein which activates the phospholipase C/protein kinase C pathway for inositol phosphate production. We measured G-protein activation in HEK293 cells transiently expressing Galr2, using the serum response element-luciferase (SRE-Luc) gene reporter assay[10],[37] and for a more specific monitoring of Gαq-protein activity we also measured total inositol phosphate production. […] However, some differences were observed between SRE-Luc activity and total inositol phosphate production in the rank order of potency of the tested ligands. […] Phosphorylation of extracellular signal-regulated protein kinases 1 and 2 (pErk1/2) is either G-protein or β-arrestin dependent. To distinguish Gαq-protein- and β-arrestin1/2-dependent Erk1/2 signaling, we examined ligand-stimulated Erk1/2 phosphorylation in three different HEK293 cell lines, wild type, Gαq/11-knockout, and β-arrestin1/2-knockout cells. All three ligands induced high levels of Erk1/2 phosphorylation dose-dependently in wild-type HEK293 cells.
Fig. 5 Galr2 agonists display different Gαq-protein-dependent signaling and pErk1/2. The ability of increasing concentrations of agonists to induce a SRE-Luc activity and b total inositol phosphate production. c Representative western blot showing ligand-induced phosphorylation of Erk1/2 from wild-type (HEK293 WT), Gαq/11-, and β-arrestin1/2-knockout HEK293 cells expressing Galr2 (original blots are presented in Supplementary Figure 4). pErk1/2 and total Erk levels were determined at 5 min after stimulation of different concentrations of three ligands. Western blot band intensities corresponding to each concentration were quantified using Image studio ^TM Software. […] Data are the mean ± s.e.m. values of two independent experiments
(§1) Quantification of bias between each pathway was performed using Galanin as a reference ligand. All incubations for the different signaling assays were performed in serum-free medium to prevent peptide degradation.
One day before transfection, cells were seeded in 48-well plates at a density of 2.5 × 10^4 cells per well. A mixture containing 75 ng SRE-Luc reporter construct, 75 ng expression plasmid, and 0.3 μl Lipofectamine 2000 (Invitrogen) was prepared and added to each well, according to the manufacturer’s instructions. The cells were then maintained in serum-free DMEM for 16–18 h before exposure to the ligands. Approximately 48 h after transfection, the cells were treated with the respective ligands for 6 h. The cells were then lysed using 100 μl lysis buffer. The luciferase activity in 50 μl cell extract was determined using a luciferase assay system, following the standard protocol for the Synergy 2 Multi-Mode Microplate Reader Biotek.

[2] = test system: β-arrestin2–Galr2 interaction (Galr2); assay: β-Arrestin2 recruitment using NanoBit technology; format: cell-based, human; conditions: for Log(τ/KA), β-Arrestin2: HEK293 cells, luminescence at 5 min after agonist, operational model (Eq. 2)
Excerpt: The β-arrestin recruitment assays were developed based on a structural complementation assay using NanoBit technology. Briefly, NanoBit technology is a system that basically consists of Nano luciferase (Nluc), which is a small protein that catalyzes a bright luminescent reaction. To create a complementation system, Nluc was separated into two subunits that individually produce very little enzymatic activity. […] Because of this low affinity for each other, these two fragments can bind when they are in close proximity. The interaction between the LgBit and the SmBit can be driven by the interactions of the fusion partners, allowing them to study protein–protein interaction in live cells. As the interaction is reversible, the association and dissociation can be monitored. There is no lag time in the loss of luminescence, and so the immediate detection allows for accurate assessment of temporal dynamics. […] To accurately monitor β-arrestin recruitment, four plasmid combinations between LgBit and SmBit with the fusion partners Galr2 and β-arrestins were screened. The plasmid combination with the highest luminescence signal was chosen for further studies (Fig. 2a, Supplementary Fig. 1). Using data points at 5 min after ligand stimulation, we obtained dose–response curves that corresponded to β-arrestin1/2 recruitment (Fig. 2d, e, Supplementary Fig. 2).
Fig. 2 The effect of different endogenous ligands in β-arrestin1/2 recruitment. a Schematic representation of the structural complementation assay used to monitor β-arrestin1/2–Galr2 interactions. Kinetic traces of β-arrestin1 (b) and β-arrestin2 (c) recruitment after Galr2 activation with 1 μM of three different agonists. Dose–response curves for recruitment of β-arrestin1 (d), and β-arrestin2 (e). Luminescence signal intensity obtained at 5 min after agonist stimulation was measured. […] The results are expressed as mean ± s.e.m. of three experiments performed in triplicate; each triplicate was averaged before calculating the s.e.m. The arrows indicate the time at which the cells were treated with the different ligands
as §1
HEK293 cells were obtained from the American Type Culture Collection (ATCC, CRL-1573; Manassas, VA, USA). […] After a 10-min incubation, 25 μl substrate (furimazine) was added and once every minute subsequent luminescence measurements were taken for 10 min for signal stabilization. A total of 10 μl ligand was then added to each well and luminescence measurements were recorded immediately and once every minute for 1 h (Synergy 2 Multi-Mode Microplate Reader BioTek, Winooski, VT, USA).

[3] = mean ± s.e.m. of three experiments in triplicate
[4] = normalized to Galanin (reference agonist), in parenthesis, mean ± s.e.m. of three experiments in triplicate

Molecule	Log(τ/KA), SRE-Luc [1, 3]	ΔLog(τ/KA), SRE-Luc [1, 4]	Log(τ/KA), β-Arrestin2 [2, 3]	ΔLog(τ/KA), β-Arrestin2 [2, 4]	efficacy in SRE-Luc assay ([1]; HEK293 cells transiently expressing Galr2)	agonism in β-arrestin2 recruitment ([2]; dose–response, data at 5 min after ligand stimulation, compared with Galanin)
Galanin [reference compound]	4.80±0.007	0.00 ± 0.007	7.20 ± 0.02	0.00 ± 0.02	–	–
Spexin (peptide, UniProt Q9BT56 27-116, looked up, Spexin, endogenous peptide ligand of Galr2 and Galr3; synthesized by AnyGen) Spexin: APQRLLERRNWTPQAMLYLKGAQGRRFISDQSRRKDLSDRPLPERRSPNPQLLTIPEAATILLASLQKSPEDEEKNFDQTRFLEDSLLNW	4.95±0.04	–	6.40 ± 0.03	–	substantially higher efficacy	partial agonists
